Measurements taken from patent US9238647B2, “P2X3 receptor antagonists for treatment of pain” (Merck Sharp & Dohme Corp., priority 2009, dated 2016).

Molecular target: T1, human P2X3 (Homo sapiens, UniProt P56373)
T1 construct: expressed in transfected cells
T1 sequence (P56373 1-397): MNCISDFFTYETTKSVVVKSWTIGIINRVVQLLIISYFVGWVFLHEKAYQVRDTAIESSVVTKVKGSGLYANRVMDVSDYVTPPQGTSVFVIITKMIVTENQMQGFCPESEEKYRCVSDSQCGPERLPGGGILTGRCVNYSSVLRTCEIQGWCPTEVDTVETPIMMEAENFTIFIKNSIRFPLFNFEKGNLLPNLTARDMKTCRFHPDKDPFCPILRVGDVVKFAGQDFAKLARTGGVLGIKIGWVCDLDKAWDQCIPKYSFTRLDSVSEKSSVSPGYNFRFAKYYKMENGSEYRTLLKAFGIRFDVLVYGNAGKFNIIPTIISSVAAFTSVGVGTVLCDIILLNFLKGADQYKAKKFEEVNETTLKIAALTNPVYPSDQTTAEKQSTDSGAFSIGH
Assay: Intracellular Calcium Measurement to Assess Antagonist Affinity (FLIPR, Fluo-4, α,β-meATP agonist)
Type: cell-based
Settings: cells expressing human P2X3; agonist α,β-meATP at EC50; antagonist added 10 min before agonist
Text: Generation of a Human P2X3 and P2X2/3 Stable Cell Line—Human P2X3 receptor cDNA (Accession number NM_002559) was subcloned as a 5′XhoI and 3′HindIII fragment into the expression vector pcDNA5/FRT (Invitrogen). Human P2X2 receptor cDNA (Accession number NM_174873) was subcloned as a 5′EcoRI and 3′NotI fragment into the expression vector pIRESneo2 (BD Biosciences Clontech). The human P2X3 expression construct was transfected using Lipofectamine 2000 (Invitrogen) into Flp-in-293 cells (Invitrogen) according to the manufacturer's directions. Cells positive for flp-mediated recombination of […] P2X3 were selected using 150 μg/ml hygromycin. […]
Intracellular Calcium Measurement to Assess Antagonist Affinity—A fluorescent imaging plate reader (FLIPR; Molecular Devices) was used to monitor intracellular calcium levels using the calcium-chelating dye Fluo-4 (Molecular Probes). The excitation and emission wavelengths used to monitor fluorescence were 488 nm and 530 nm, respectively. […] During this period fluorescence data is collected at 3 sec intervals followed by 10 sec intervals. […] Following agonist addition fluorescence was measured at 5 sec intervals and analyzed based on the increase in peak relative fluorescence units (RFU) compared to the basal fluorescence. […]

SMILES: Cc1ccc(-c2cc(C(=O)N[C@H](C)c3ccc(C(F)(F)F)nc3)cc3nncn23)cc1 [Example 4.3, 5-(4-Methylphenyl)-N-{(1R)-1-[6-(trifluoromethyl)pyridin-3-yl]ethyl}[1,2,4]triazolo[4,3-a]pyridine-7-carboxamide]
- IC50: 200 nM
